Results on 25 molecules are retold here after patent US20220088146A1, “Melanocortin Receptor-Specific Peptide Formulations and Methods for Gastrointestinal Tract-Specific Delivery” (Palatin Technologies, Inc., priority 2018, published 2022).

Structures are written as SMILES. Numbered stars: 1 amine (or outer) side, 2 acyl side, 3 side chain; on linkers, the order of the positions; unused ones are H or OH. Bridge positions count the residues as written; N and C are the ends. Square brackets hold non-standard residues; d marks the D form. Peptide text beside a SMILES is read from it. dPhe(4-Cl) = N[C@H](Cc1ccc(Cl)cc1)C(=O)O; dPhe(2-Cl) = N[C@H](Cc1ccccc1Cl)C(=O)O; dPhe(4-F) = N[C@H](Cc1ccc(F)cc1)C(=O)O; dPhe(2-F) = N[C@H](Cc1ccccc1F)C(=O)O; Suc = O=C(CCC(=O)[*:2])[*:1]; Nle = CCCC[C@H](N)C(=O)O; Orn = NCCC[C@H](N)C(=O)O; Dab = NCC[C@H](N)C(=O)O; Dap = NC[C@H](N)C(=O)O

Broadly, the Emax is the maximal effect, on the per cent scale that the assay sets.

Chain of hMC1r (Q01726 whole entry): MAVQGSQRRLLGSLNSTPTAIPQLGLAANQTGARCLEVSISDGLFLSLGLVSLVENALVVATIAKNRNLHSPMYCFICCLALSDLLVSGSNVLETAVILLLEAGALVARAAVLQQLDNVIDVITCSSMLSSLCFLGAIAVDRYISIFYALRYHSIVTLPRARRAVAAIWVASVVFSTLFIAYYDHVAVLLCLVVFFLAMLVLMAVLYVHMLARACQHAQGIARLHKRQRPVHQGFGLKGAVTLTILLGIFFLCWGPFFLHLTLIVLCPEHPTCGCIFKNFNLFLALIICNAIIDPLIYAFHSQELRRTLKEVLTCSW

This experiment deals with hMC1r (Homo sapiens, UniProt Q01726). Nature of the experiment: Assay for agonist activity: cAMP accumulation in HBL melanoma cells. The note with it: HBL, compared to NDP-α-MSH as 100%, read-out: MC-1 Emax (average; cAMP HBL). The format is cell-based. Also on record: endogenous in cells; host or cells: HBL human melanoma cells. The method, then:
8.2 Assay for Agonist Activity.
Confluent HBL cells that express hMC1r or HEK-293 cells that express recombinant hMC4r were detached from culture plates by incubation in enzyme-free cell dissociation buffer. Dispersed cells were suspended in Earle's Balanced Salt Solution containing 10 mM HEPES (pH 7.5), 1 mM MgCl2, 1 mM glutamine, 0.5% albumin and 0.3 mM 3-isobutyl-1-methyl-xanthine (IBMX), a phosphodiesterase inhibitor. The cells were plated in 96-well plates at a density of 0.4×10^5 cells per well for HBL cells and 0.5×10^5 cells per well for HEK-293 cells and pre-incubated for 10 minutes. Cells were exposed for 15 minutes at 37° C. to peptides of the present invention dissolved in DMSO (final DMSO concentration of 1%) at a concentration range of 0.05-5000 nM in a total assay volume of 200 μL. […] Data analysis was performed by nonlinear regression analysis with Graph-Pad Prism® software.
All results are expressed in nM except for Emax values, which are percentage values. Peptides with the captioned primary sequence were synthesized and purified as described in Section 7 above, with the resulting peptide having the structure depicted.
In general terms: Cyclic AMP is a second messenger, typically raised through Gs and lowered through Gi signalling.
`CCCC[C@H](NC(C)=O)C(=O)N[C@H]1CCC(=O)NCCCC[C@@H](C(=O)N[C@@H](Cc2c[nH]c3ccccc23)C(N)=O)NC(=O)[C@H](CCCNC(=N)N)NC(=O)[C@@H](Cc2ccccc2)NC(=O)[C@H](Cc2c[nH]cn2)NC1=O` [Example 9.1, Ac-Nle-cyclo(Glu-His-D-Phe-Arg-Lys)-Trp-NH2]: the maximum response (Emax) stood at 97%.

As to `CCCC[C@H](NC(C)=O)C(=O)N[C@H]1CCC(=O)NCC[C@@H](C(N)=O)NC(=O)[C@H](CCCNC(=N)N)NC(=O)[C@@H](Cc2ccccc2Cl)NC(=O)[C@H](CCCN)NC1=O` [Example 9.57, Ac-Nle-cyclo(Glu-Orn-D-Phe(2-Cl)-Arg-Dab)-NH2] (Ac-[Nle]E[Orn][dPhe(2-Cl)]R[Dab]-NH2; lactam 2-6), the Emax is 88%.

For the molecule `CCCC[C@H](NC(C)=O)C(=O)N[C@H]1CCC(=O)NCCC[C@@H](C(=O)N[C@@H](Cc2c[nH]c3ccccc23)C(N)=O)NC(=O)[C@H](CCCNC(=N)N)NC(=O)[C@@H](Cc2ccccc2)NC(=O)[C@H](Cc2c[nH]cn2)NC1=O` [Example 9.6, Ac-Nle-cyclo(Glu-His-D-Phe-Arg-Orn)-Trp-NH2], the Emax is 91%.

Regarding `CCCC[C@H](NC(C)=O)C(=O)N[C@H]1CCC(=O)NCC[C@@H](C(N)=O)NC(=O)[C@H](CCCNC(=N)N)NC(=O)[C@@H](Cc2ccc(F)cc2)NC(=O)[C@H](CCCN)NC1=O` [Example 9.61, Ac-Nle-cyclo(Glu-Orn-D-Phe(4-F)-Arg-Dab)-NH2] (Ac-[Nle]E[Orn][dPhe(4-F)]R[Dab]-NH2; lactam 2-6), the maximal effect (Emax) came out at 102%.

`CCCC(=O)N[C@H]1CCC(=O)NCC[C@@H](C(=O)N[C@@H](Cc2c[nH]c3ccccc23)C(N)=O)NC(=O)[C@H](CCCNC(=N)N)NC(=O)[C@@H](Cc2ccccc2)NC(=O)[C@H](Cc2c[nH]cn2)NC1=O` [Example 9.15, CH3—(CH2)2—C(═O)-cyclo(Glu-His-D-Phe-Arg-Dab)-Trp-NH2]: the Emax came to 91%.

Turning to `N=C(N)NCCC[C@@H]1NC(=O)[C@@H](Cc2ccccc2)NC(=O)[C@H](Cc2c[nH]cn2)NC(=O)CCC(=O)NCC[C@@H](C(=O)N[C@@H](Cc2c[nH]c3ccccc23)C(N)=O)NC1=O` [Example 9.14, cyclo(Suc-His-Phe-Arg-Dab)-Trp-NH2] (H[dF]R[Dab]W-NH2; linker N-4 via Suc), the Emax came out at 80%.

In the case of `CCCC[C@H](NC(C)=O)C(=O)N[C@H]1CCC(=O)NCC[C@@H](C(=O)N[C@H](Cc2ccc3ccccc3c2)C(N)=O)NC(=O)[C@H](CCCNC(=N)N)NC(=O)[C@@H](Cc2ccccc2)NC(=O)[C@H](Cc2c[nH]cn2)NC1=O` [Example 9.11, Ac-Nle-cyclo(Glu-His-D-Phe-Arg-Dab)-D-Nal 2-NH2], the Emax was 69%.

Turning to `CCCC[C@H](NC(C)=O)C(=O)N[C@H]1CCC(=O)NCC[C@@H](C(=O)N[C@@H](Cc2c[nH]c3ccccc23)C(N)=O)NC(=O)[C@H](CCCNC(=N)N)NC(=O)[C@@H](Cc2ccccc2)NC(=O)[C@H](Cc2c[nH]cn2)NC1=O` [Example 9.2, Ac-Nle-cyclo(Glu-His-D-Phe-Arg-Dab)-Trp-NH2], the maximal effect (Emax) was found to be 95%.

As for `CCCC[C@H](NC(C)=O)C(=O)N[C@H]1CC(=O)NC[C@@H](C(=O)N[C@@H](Cc2c[nH]c3ccccc23)C(N)=O)NC(=O)[C@H](CCCNC(=N)N)NC(=O)[C@@H](Cc2ccccc2)NC(=O)[C@H](Cc2c[nH]cn2)NC1=O` [Example 9.4, Ac-Nle-cyclo(Asp-His-D-Phe-Arg-Dap)-Trp-NH2] (Ac-[Nle]DH[dF]R[Dap]W-NH2; lactam 2-6), the maximal response (Emax) worked out at 88%.

With `CCCC[C@H](NC(C)=O)C(=O)N[C@H]1CCC(=O)NCC[C@@H](C(=O)N[C@@H](CCCCN)C(N)=O)NC(=O)[C@H](CCCNC(=N)N)NC(=O)[C@@H](Cc2ccccc2)NC(=O)[C@H](Cc2c[nH]cn2)NC1=O` [Example 9.39, Ac-Nle-cyclo(Glu-His-D-Phe-Arg-Dab)-Lys-NH2], the maximal effect (Emax) came out at 91%.

With `N=C(N)NCCC[C@@H]1NC(=O)[C@@H](Cc2ccccc2)NC(=O)[C@H](Cc2c[nH]cn2)NC(=O)[C@@H](NC(=O)CCc2ccccc2)CCC(=O)NCC[C@@H](C(=O)N[C@@H](Cc2c[nH]c3ccccc23)C(N)=O)NC1=O` [Example 9.24, phenyl propanoyl-cyclo(Glu-His-D-Phe-Arg-Dab)-Trp-NH2], the Emax was 83%.

For the molecule `CCCC[C@H](NC(C)=O)C(=O)N[C@H]1CCC(=O)NCC[C@@H](C(=O)N[C@@H](C)C(N)=O)NC(=O)[C@H](CCCNC(=N)N)NC(=O)[C@@H](Cc2ccccc2)NC(=O)[C@H](Cc2c[nH]cn2)NC1=O` [Example 9.25, Ac-Nle-cyclo(Glu-His-D-Phe-Arg-Dab)-Ala-NH2] (Ac-[Nle]EH[dF]R[Dab]A-NH2; lactam 2-6), the Emax came out at 97%.

Take `CCCC[C@H](NC(C)=O)C(=O)N[C@H]1CCC(=O)NCC[C@@H](C(N)=O)NC(=O)[C@H](CCCNC(=N)N)NC(=O)[C@@H](Cc2ccc(Cl)cc2)NC(=O)[C@H](CCCN)NC1=O` [Example 9.59, Ac-Nle-cyclo(Glu-Orn-D-Phe(4-Cl)-Arg-Dab)-NH2] (Ac-[Nle]E[Orn][dPhe(4-Cl)]R[Dab]-NH2; lactam 2-6): the Emax worked out at 100%.

In the case of `CCCC[C@H](NC(C)=O)C(=O)N[C@H]1CCC(=O)NCC[C@@H](C(N)=O)NC(=O)[C@H](CCCNC(=N)N)NC(=O)[C@@H](Cc2ccccc2)NC(=O)[C@H](CCCN)NC1=O` [Example 9.56, Ac-Nle-cyclo(Glu-Orn-D-Phe-Arg-Dab)-NH2] (Ac-[Nle]E[Orn][dF]R[Dab]-NH2; lactam 2-6), the Emax amounted to 102%.

As for `CCCC[C@H](NC(C)=O)C(=O)N[C@H]1CSSC[C@@H](C(=O)N[C@@H](Cc2c[nH]c3ccccc23)C(N)=O)NC(=O)[C@H](CCCNC(=N)N)NC(=O)[C@@H](Cc2ccccc2)NC(=O)[C@H](Cc2c[nH]cn2)NC1=O` [Example 9.5, Ac-Nle-cyclo(Cys-His-D-Phe-Arg-Cys)-Trp-NH2], the Emax worked out at 87%.

As for `CCCC[C@H](NC(C)=O)C(=O)N[C@H]1CCNC(=O)CCC(=O)NC[C@@H](C(=O)N[C@@H](Cc2c[nH]c3ccccc23)C(N)=O)NC(=O)[C@H](CCCNC(=N)N)NC(=O)[C@@H](Cc2ccccc2)NC(=O)[C@H](Cc2c[nH]cn2)NC1=O` [Example 9.29, Ac-Nle-cyclo(Dab-His-D-Phe-Arg-Dap)-Trp-NH2], the Emax stood at 78%.

In the case of `CC(=O)N[C@H](Cc1ccccc1)C(=O)N[C@H]1CCC(=O)NCC[C@@H](C(=O)N[C@@H](Cc2c[nH]c3ccccc23)C(N)=O)NC(=O)[C@H](CCCNC(=N)N)NC(=O)[C@@H](Cc2ccccc2)NC(=O)[C@H](Cc2c[nH]cn2)NC1=O` [Example 9.12, Ac-D-Phe-cyclo(Glu-His-D-Phe-Arg-Dab)-Trp-NH2], the Emax amounted to 75%.

Regarding `N=C(N)NCCC[C@@H]1NC(=O)[C@@H](Cc2ccccc2)NC(=O)[C@H](Cc2c[nH]cn2)NC(=O)[C@@H](NC(=O)CC2CCCC2)CCC(=O)NCC[C@@H](C(=O)N[C@@H](Cc2c[nH]c3ccccc23)C(N)=O)NC1=O` [Example 9.21, cyclopentyl acetyl-cyclo(Glu-His-D-Phe-Arg-Dab)-Trp-NH2], the Emax stood at 83%.

Turning to `CCCC[C@H](NC(C)=O)C(=O)N[C@H]1CCC(=O)NCC[C@@H](C(=O)N[C@@H](Cc2ccc3ccccc3c2)C(N)=O)NC(=O)[C@H](CCCNC(=N)N)NC(=O)[C@@H](Cc2ccccc2)NC(=O)[C@H](Cc2c[nH]cn2)NC1=O` [Example 9.10, Ac-Nle-cyclo(Glu-His-D-Phe-Arg-Dab)-Nal 2-NH2], the maximal effect (Emax) stood at 83%.

On to `N=C(N)NCCC[C@@H]1NC(=O)[C@@H](Cc2ccccc2)NC(=O)[C@H](Cc2c[nH]cn2)NC(=O)[C@@H](NC(=O)C2CC2)CCC(=O)NCC[C@@H](C(=O)N[C@@H](Cc2c[nH]c3ccccc23)C(N)=O)NC1=O` [Example 9.19, cyclo-propanoyl-cyclo(Glu-His-D-Phe-Arg-Dab)-Trp-NH2], for which the Emax came out at 83%.

`CCCC[C@H](NC(C)=O)C(=O)N[C@H]1CCC(=O)NCC[C@@H](C(N)=O)NC(=O)[C@H](CCCNC(=N)N)NC(=O)[C@@H](Cc2ccccc2F)NC(=O)[C@H](CCCN)NC1=O` [Example 9.60, Ac-Nle-cyclo(Glu-Orn-D-Phe(2-F)-Arg-Dab)-NH2] (Ac-[Nle]E[Orn][dPhe(2-F)]R[Dab]-NH2; lactam 2-6): the Emax is 95%.

Consider `CCCCCCC(=O)N[C@H]1CCC(=O)NCC[C@@H](C(=O)N[C@@H](Cc2c[nH]c3ccccc23)C(N)=O)NC(=O)[C@H](CCCNC(=N)N)NC(=O)[C@@H](Cc2ccccc2)NC(=O)[C@H](Cc2c[nH]cn2)NC1=O` [Example 9.18, CH3—(CH2)5—C(═O)-cyclo(Glu-His-D-Phe-Arg-Dab)-Trp-NH2], for which the Emax is 87%.

For `CCCC[C@H](NC(C)=O)C(=O)N[C@H]1CCC(=O)NCC[C@@H](C(=O)N[C@H](Cc2c[nH]c3ccccc23)C(N)=O)NC(=O)[C@H](CCCNC(=N)N)NC(=O)[C@@H](Cc2ccccc2)NC(=O)[C@H](Cc2c[nH]cn2)NC1=O` [Example 9.7, Ac-Nle-cyclo(Glu-His-D-Phe-Arg-Dab)-D-Trp-NH2], the Emax was found to be 93%.

As to `CCCC[C@H](NC(C)=O)C(=O)N[C@H]1CCC(=O)NCC[C@@H](C(=O)N[C@H](Cc2cccc3ccccc23)C(N)=O)NC(=O)[C@H](CCCNC(=N)N)NC(=O)[C@@H](Cc2ccccc2)NC(=O)[C@H](Cc2c[nH]cn2)NC1=O` [Example 9.9, Ac-Nle-cyclo(Glu-His-D-Phe-Arg-Dab)-D-Nal 1-NH2], the Emax is 73%.

On to `CCCC[C@H](NC(C)=O)C(=O)N[C@H]1CCC(=O)NCC[C@@H](C(=O)N[C@@H](Cc2c[nH]c3ccccc23)C(N)=O)NC(=O)[C@H](CCCNC(=N)N)NC(=O)[C@H](Cc2ccccc2)NC(=O)[C@H](Cc2c[nH]cn2)NC1=O` [Example 9.8, Ac-Nle-cyclo(Glu-His-Phe-Arg-Dab)-Trp-NH2], for which the Emax was found to be 88%.
